{"source": "patent US20180153995A1", "about": "“USE OF ANTIMICROBIAL POLYMERS FOR RE-SENSITIZATION OF MICROORGANISMS UPON EMERGENCE OF RESISTANCE TO ANTI-MICROBIAL AGENTS” (Technion Research & Development Foundation Limited, priority 2008, published 2018)", "key": {"E. coli G11a1": {"system": "E. coli G11a1", "assay": "Antibiotic MIC with or without sub-MIC polymer (Tables 20, 21)", "type": "cell-based, Escherichia coli", "procedure": "(§1) MICs were determined by microdilution susceptibility testing in 96-well plates (by Nunc) using inocula of 10^5 bacteria per ml. Cell populations were evaluated by optical density measurements at 620 nm and were calibrated against a set of standards. Hundred (100) μl of a bacterial suspension were added to 100 μl of culture medium (control) or to 100 μl of culture medium containing various polymer concentrations in 2-fold serial dilutions. Inhibition of proliferation was determined by optical density measurements at 620 nm after an incubation period of 24 hours at 37° C."}, "MRSA 15852": {"system": "MRSA 15852", "type": "cell-based, Staphylococcus aureus", "conditions": "S. aureus 15852", "in_short": "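Checkerboard combination testing against MRSA 15852; FIC index = A/MICA + B/MICB, with A and B the MICs of each agent in combination and MICA, MICB the MICs alone. Index <0.5 read as clear re-sensitizing, 0.5–4 as marginal or null, >4 as antagonism.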"}, "P. aeruginosa 8732": {"system": "P. aeruginosa 8732", "assay": "Antibiotic MIC by microdilution with or without sub-MIC polymer", "type": "cell-based, Pseudomonas aeruginosa", "procedure": "as §1\nInhibition of proliferation was determined by optical density measurements at 620 nm after an incubation period of 24 hours at 37° C."}, "P. mirabilis 1285 [1]": {"system": "P. mirabilis 1285", "type": "cell-based, Proteus mirabilis", "conditions": "no polymer (None), Table 12", "procedure": "as §1\n100 μl of a bacterial suspension were added to 100 μl of culture medium (control) or to 100 μl of culture medium containing various antibiotic and C14(9-ene)KKNC12KNH2 (SEQ ID NO: 5) concentrations in 2-fold serial dilutions. Inhibition of proliferation was determined by optical density measurements at 620 nm after an incubation period of 24 hours at 37° C."}, "S. aureus 43300": {"system": "S. aureus 43300", "assay": "Antibiotic MIC by microdilution with or without sub-MIC polymer", "type": "cell-based, Staphylococcus aureus"}, "E. coli AG100/ks": {"system": "E. coli AG100/ks", "assay": "Antibiotic MIC with or without sub-MIC polymer (Tables 20, 21)", "type": "cell-based, Escherichia coli"}, "P. mirabilis 1285 [2]": {"system": "P. mirabilis 1285", "type": "cell-based, Proteus mirabilis"}, "E. coli AG100": {"system": "E. coli AG100", "assay": "Antibiotic MIC with or without sub-MIC polymer (Tables 20, 21)", "type": "cell-based, Escherichia coli"}, "S. aureus 15819": {"system": "S. aureus 15819", "assay": "Antibiotic MIC by microdilution with or without sub-MIC polymer", "type": "cell-based, Staphylococcus aureus", "conditions": "S. aureus 15819", "method": "MICs were determined by microdilution susceptibility testing in 96-well plates (Nunc) using inocula of 10^5 bacteria per ml. One hundred (100) μl of a bacterial suspension were added to 100 μl of culture medium (control) or to 100 μl of culture medium containing various antibiotic and C12(5-ene)KKNC12KNH2 (SEQ ID NO: 2) concentrations in 2-fold serial dilutions. Inhibition of proliferation was determined by optical density measurements at 620 nm after an incubation period of 24 hours at 37° C."}, "[3]": {"conditions": "+¼ MIC (1.6 μM) C12(5-ene)KKNC12KNH2"}, "[4]": {"conditions": "+½ MIC (3.12 μM) C12(5-ene)KKNC12KNH2"}, "[5]": {"conditions": "+⅓ MIC (2.1 μM) C12(5-ene)KKNC12KNH2"}, "[6]": {"conditions": "+¼ MIC (1.6 μM) C12K(KNC12K)2NH2"}, "[7]": {"conditions": "+½ MIC (3.12 μM) C12K(KNC12K)2NH2"}, "[8]": {"conditions": "+⅓ MIC (2.1 μM) C12K(KNC12K)2NH2"}}, "note": "Read-outs that look alike come from different tables or passages of the source.", "data": [{"compound": "CC1(C)S[C@@H]2[C@H](NC(=O)Cc3ccccc3)C(=O)N2[C@H]1C(=O)O", "note": "[Penicillin G, penicillin G]", "values": [{"measurement": "Antibiotic MIC, None", "setting": "E. coli G11a1; antibiotic alone (Table 20)", "value": 512, "unit": "µg/mL"}, {"measurement": "Antibiotic MIC, None", "setting": "E. coli G11a1; antibiotic alone (Table 21)", "value": 512, "unit": "µg/mL"}, {"measurement": "Antibiotic MIC", "setting": "MRSA 15852; [3]", "value": 32, "unit": "µg/mL"}, {"measurement": "Antibiotic MIC", "setting": "MRSA 15852; +¼ MIC (1.6 μM) C12KKNC12KNH2", "value": 64, "unit": "µg/mL"}, {"measurement": "Antibiotic MIC", "setting": "MRSA 15852; [4]", "value": 32, "unit": "µg/mL"}, {"measurement": "Antibiotic MIC", "setting": "MRSA 15852; +½ MIC (3.12 μM) C12KKNC12KNH2", "value": 64, "unit": "µg/mL"}, {"measurement": "Antibiotic MIC", "setting": "MRSA 15852; [5]", "value": 32, "unit": "µg/mL"}, {"measurement": "Antibiotic MIC", "setting": "MRSA 15852; +⅓ MIC (2.1 μM) C12KKNC12KNH2", "value": 64, "unit": "µg/mL"}, {"measurement": "Antibiotic MIC", "setting": "MRSA 15852; no polymer (None), Table 8", "value": 32, "unit": "µg/mL"}, {"measurement": "Antibiotic MIC", "setting": "MRSA 15852; no polymer (None), Table 11", "value": 64, "unit": "µg/mL"}, {"measurement": "Antibiotic MIC", "setting": "P. aeruginosa 8732", "value": 512, "unit": "µg/mL"}, {"measurement": "Antibiotic MIC", "setting": "P. aeruginosa 8732; P. aeruginosa 8732, +½ MIC (3.12 μM) C16(9-ene)KKNC12KNH2", "value": 512, "unit": "µg/mL"}, {"measurement": "Antibiotic MIC", "setting": "P. aeruginosa 8732; P. aeruginosa 8732, +⅓ MIC (2.1 μM) C16(9-ene)KKNC12KNH2", "value": 512, "unit": "µg/mL"}, {"measurement": "Antibiotic MIC", "setting": "P. aeruginosa 8732; P. aeruginosa 8732, no polymer (None), Table 10", "value": 512, "unit": "µg/mL"}, {"measurement": "Antibiotic MIC", "setting": "P. mirabilis 1285 [1]", "value": 512, "unit": "µg/mL"}, {"measurement": "Antibiotic MIC", "setting": "S. aureus 43300; [3]", "value": 1, "unit": "µg/mL"}, {"measurement": "Antibiotic MIC", "setting": "S. aureus 43300; [6]", "value": 8, "unit": "µg/mL"}, {"measurement": "Antibiotic MIC", "setting": "S. aureus 43300; +¼ MIC (1.6 μM) C12KKNC12KNH2", "value": 4, "unit": "µg/mL"}, {"measurement": "Antibiotic MIC", "setting": "S. aureus 43300; +¼ MIC (1.6 μM) C16(9-ene)KKNC12KNH2", "value": 2, "unit": "µg/mL"}, {"measurement": "Antibiotic MIC", "setting": "S. aureus 43300; [7]", "value": 4, "unit": "µg/mL"}, {"measurement": "Antibiotic MIC", "setting": "S. aureus 43300; +½ MIC (3.12 μM) C12KKNC12KNH2", "value": 1, "unit": "µg/mL"}, {"measurement": "Antibiotic MIC", "setting": "S. aureus 43300; +½ MIC (3.12 μM) C16(9-ene)KKNC12KNH2", "value": 0.25, "unit": "µg/mL"}, {"measurement": "Antibiotic MIC", "setting": "S. aureus 43300; [5]", "value": 0.25, "unit": "µg/mL"}, {"measurement": "Antibiotic MIC", "setting": "S. aureus 43300; [8]", "value": 8, "unit": "µg/mL"}, {"measurement": "Antibiotic MIC", "setting": "S. aureus 43300; +⅓ MIC (2.1 μM) C12KKNC12KNH2", "value": "2 to 4", "unit": "µg/mL"}, {"measurement": "Antibiotic MIC", "setting": "S. aureus 43300; +⅓ MIC (2.1 μM) C16(9-ene)KKNC12KNH2", "value": "1 to 2", "unit": "µg/mL"}, {"measurement": "Antibiotic MIC, None", "setting": "E. coli AG100/ks; antibiotic alone (Table 20)", "value": ">512", "unit": "µg/mL"}, {"measurement": "Antibiotic MIC, None", "setting": "E. coli AG100/ks; antibiotic alone (Table 21)", "value": ">512", "unit": "µg/mL"}, {"measurement": "Antibiotic MIC in presence of C12K(NC8K)5NH2 (SEQ ID NO: 3), +¼ MIC", "setting": "E. coli AG100/ks; polymer at ¼ of its MIC", "value": ">512", "unit": "µg/mL"}, {"measurement": "Antibiotic MIC in presence of C12K(NC8K)5NH2 (SEQ ID NO: 3), +½ MIC", "setting": "E. coli AG100/ks; polymer at ½ of its MIC", "value": ">512", "unit": "µg/mL"}, {"measurement": "Antibiotic MIC in presence of C12K(NC8K)5NH2 (SEQ ID NO: 3), +⅓ MIC", "setting": "E. coli AG100/ks; polymer at ⅓ of its MIC", "value": ">512", "unit": "µg/mL"}, {"measurement": "Antibiotic MIC", "setting": "P. mirabilis 1285 [2]; [6]", "value": 512, "unit": "µg/mL"}, {"measurement": "Antibiotic MIC", "setting": "P. mirabilis 1285 [2]; [7]", "value": 512, "unit": "µg/mL"}, {"measurement": "Antibiotic MIC", "setting": "P. mirabilis 1285 [2]; [8]", "value": 512, "unit": "µg/mL"}, {"measurement": "Antibiotic MIC, None", "setting": "E. coli AG100; antibiotic alone (Table 20)", "value": 32, "unit": "µg/mL"}, {"measurement": "Antibiotic MIC, None", "setting": "E. coli AG100; antibiotic alone (Table 21)", "value": 32, "unit": "µg/mL"}, {"measurement": "Antibiotic MIC in presence of C12K(NC8K)5NH2 (SEQ ID NO: 3), +¼ MIC", "setting": "E. coli AG100; polymer at ¼ of its MIC", "value": 16, "unit": "µg/mL"}, {"measurement": "Antibiotic MIC in presence of C12K(NC8K)7NH2 (SEQ ID NO: 4), +¼ MIC", "setting": "E. coli AG100; polymer at ¼ of its MIC", "value": "16 to 32", "unit": "µg/mL"}, {"measurement": "Antibiotic MIC in presence of C12K(NC8K)5NH2 (SEQ ID NO: 3), +½ MIC", "setting": "E. coli AG100; polymer at ½ of its MIC", "value": 8, "unit": "µg/mL"}, {"measurement": "Antibiotic MIC in presence of C12K(NC8K)7NH2 (SEQ ID NO: 4), +½ MIC", "setting": "E. coli AG100; polymer at ½ of its MIC", "value": 8, "unit": "µg/mL"}, {"measurement": "Antibiotic MIC in presence of C12K(NC8K)5NH2 (SEQ ID NO: 3), +⅓ MIC", "setting": "E. coli AG100; polymer at ⅓ of its MIC", "value": 16, "unit": "µg/mL"}, {"measurement": "Antibiotic MIC in presence of C12K(NC8K)7NH2 (SEQ ID NO: 4), +⅓ MIC", "setting": "E. coli AG100; polymer at ⅓ of its MIC", "value": "8 to 16", "unit": "µg/mL"}, {"measurement": "Antibiotic MIC", "setting": "S. aureus 15819; [3]", "value": "8 to 12", "unit": "µg/mL"}, {"measurement": "Antibiotic MIC", "setting": "S. aureus 15819; +¼ MIC (1.6 μM) C12K(KNC12K)3NH2", "value": 4, "unit": "µg/mL"}, {"measurement": "Antibiotic MIC", "setting": "S. aureus 15819; +¼ MIC (1.6 μM) C12KKNC12KNH2", "value": 8, "unit": "µg/mL"}, {"measurement": "Antibiotic MIC", "setting": "S. aureus 15819; [4]", "value": 4, "unit": "µg/mL"}, {"measurement": "Antibiotic MIC", "setting": "S. aureus 15819; +½ MIC (3.12 μM) C12K(KNC12K)3NH2", "value": 0.5, "unit": "µg/mL"}, {"measurement": "Antibiotic MIC", "setting": "S. aureus 15819; +½ MIC (3.12 μM) C12KKNC12KNH2", "value": 2, "unit": "µg/mL"}, {"measurement": "Antibiotic MIC", "setting": "S. aureus 15819; [5]", "value": 8, "unit": "µg/mL"}, {"measurement": "Antibiotic MIC", "setting": "S. aureus 15819; +⅓ MIC (2.1 μM) C12K(KNC12K)3NH2", "value": 2, "unit": "µg/mL"}, {"measurement": "Antibiotic MIC", "setting": "S. aureus 15819; +⅓ MIC (2.1 μM) C12KKNC12KNH2", "value": 4, "unit": "µg/mL"}, {"measurement": "Antibiotic MIC", "setting": "S. aureus 15819; no polymer (None), Table 8", "value": 16, "unit": "µg/mL"}, {"measurement": "Antibiotic MIC", "setting": "S. aureus 15819; no polymer (None), Table 11", "value": 16, "unit": "µg/mL"}, {"measurement": "Antibiotic MIC", "setting": "S. aureus 15819; no polymer (None), Table 13", "value": 16, "unit": "µg/mL"}]}]}
